Patent US20240316050A1 (OXFORD UNIVERSITY INNOVATION LIMITED, priority 2020, published 2024)
“Also recorded” adds a separate entry of the source. Counter-ions that a name gives are not always drawn.

Assays:
Gch1^fl/flTie2cre mice = assay: Systolic blood pressure by tail-cuff plethysmography in pregnant mice; conditions: oral 5-MTHF begun at day 10.5 or 16.5
Protocol: Female Gch1^fl/flTie2cre mice and their Gch1^fl/fl littermates (thereafter referred to as wild-type) were used for all experiments at 10 to 16 weeks.
Systolic blood pressure and heart rate was determined using a computerized tail-cuff system (Visitech, USA) in conscious mice^6. Experiments were performed between the hours of 8 and 12 am. The animal tails were passed through a cylindrical latex tail-cuff and taped down to reduce movement. Twenty readings were taken per mouse of which the first 5 readings were discarded. The remaining 15 readings were used to calculate the mean systolic blood pressure and heart rate in each mouse.

[1] = Plasma and uterine artery biopterins by HPLC in treated pregnant mice; conditions: for systemic oxidation of BH4 to BH2: Gch1 deficient and control mice, oral supplementation
Protocol: After centrifugation at 13,200 rpm for 10 min at 4° C., supernatant was removed and ice-cold acid precipitation buffer (1 M phosphoric acid, 2 M trichloroacetic acid, 1 mM dithioerythritol) was added. Following centrifugation at 13,200 rpm for 10 min at 4° C., the supernatant was removed and injected onto the HPLC system.

HUVECs [2] = assay: Intracellular BH4 and biopterins by HPLC in HUVECs; assay type: cell-based, human
Excerpt: (§1) Umbilical cords were collected at birth and human umbilical vein endothelial cells (HUVECs) were isolated and stored in liquid nitrogen according to standard operating procedures within a research tissue bank (Oxford Cardiovascular Tissue Bioresource; ethical approval 09/[…]/68, 07/[…]/148 and 11/SC/0230). For the purpose of the current study, HUVECs were identified from normotensive pregnancies and pregnancies complicated by preeclampsia, matched for maternal age and gestation. HUVECs and human uterine microvascular endothelial cells (HutMECs; Cat C-12295, Promocell) were cultured in EBM2 (endothelial basal medium) with bullet kit as recommended (Cat CC-3162, Lonza). All cell cultures were maintained in humidified 5% CO2 at 37° C. Primary HUVEC and HutMEC cells, obtained between passages 1-3 were and passages 4-6, respectively, were used for all experiments. sEnd.1 endothelial cells were grown in Dulbecco's modified Eagle's medium (Invitrogen) supplemented with glutamine (2 mmol/liter), penicillin (100 units/ml), and streptomycin (0.1 mg/ml).

[3] = target: T1, endothelial nitric oxide synthase (eNOS) (Mus musculus, UniProt P70313); assay: eNOS activity (14C arginine to 14C citrulline) in sEnd.1 cells; assay type: cell-based; conditions: 5MTHF 10 μm, 16 h (FIG. 34)
T1 construct: Conversion of 14C arginine to 14C citrulline was used as a measure of endothelial nitric oxide synthase activity (eNOS); endogenous in cells; host or cells: sEnd.1 murine endothelial cell line

uterine arteries = assay: Wire myography of isolated uterine arteries with inhibitors in the bath; set-up: species or system mouse
Excerpt: All drugs used were purchased from Sigma Chemical Company.

sEnd.1 cells = assay: Superoxide and ROS production by DHE HPLC in sEnd.1 cells; assay type: cell-based, mouse; conditions: folic acid 10 μm, 16 h (FIG. 33)
Protocol: Measurement of 2-hydroxyethidium formation by HPLC was used to quantify superoxide production, as previously described. Briefly, the cells were washed three times in PBS and incubated in Krebs-Hepes buffer in the presence or absence of I-NAME (100 μm). After 30 min, dihydroethidium (25 μm) was added, and the cells were then incubated for an additional 20 min at 37° C. The cells were then harvested by scraping, centrifuged, and lysed in ice-cold methanol. Hydrochloric acid (100 mm) was added (1:1 v/v) prior to loading into the autosampler for analysis. All of the samples were stored in darkened tubes and protected from light at all times. Separation of ethidium, oxyethidium, and dihydroethidium was performed using a gradient HPLC system (Jasco) with an ODS3 reverse phase column (250 mm, 4.5 mm; Hichrom), and quantified using a fluorescence detector set at 510 nm (excitation) and 595 nm (emission). A linear gradient was applied from Mobile phase A (0.1% TFA (v/v)) to Mobile phase B (0.1% TFA (v/v) in acetonitrile) over 23 min (30% acetonitrile to 50% acetonitrile).

women with pre-eclampsia = conditions: folic acid supplementation, clinical trials; cited from earlier work
[4] = test system: sEnd.1 murine endothelial cells; assay: Intracellular BH4 and biopterins by HPLC in sEnd.1 cells; assay type: cell-based, mouse
Excerpt: as §1, with “mg/ml). GCH1-specific, ON-TARGETplus SMARTpool siRNA was purchased from Dharmacon Thermo Scientific. […] The cells were cultured for 72 h, and gene silencing was detected by analysis of GTPCH protein expression by Western blotting using GTPCH-specific antibodies (a gift from S.Gross, Cornell University New York), in cells using standard protocols.” for “mg/ml).”

people with PKU = conditions: most people with PKU; cited from earlier work
[5] = test system: human uterine microvascular endothelial cells (HutMECs); assay: Matrigel endothelial tube formation, HutMECs with GCH1 siRNA; assay type: cell-based; conditions: HutMECs treated with GCH1 siRNA; sepiapterin 1 μM
Protocol: (§2) To assess tube formation ability of endothelial cells, a 96-well plate was evenly coated with 50 μl of growth factor-reduced Matrigel (BD Biosciences, UK). Endothelial cells were plated at a density of 1×10^4 cells per well. The plate was incubated at 37° C. for 16 hours before photomicroscopy. Each sample was replicated in triplicate and the image of each well was taken at ×4 magnification using a Nikon Eclipse TE2000-U microscope (Nikon Ltd, London, UK). Images obtained from Matrigel assay were adjusted for mean brightness using acquisition software to control the bright field illumination of the microscope (Simple PCI version 6.6.0.0; Hamamatsu Corporation, Sewickley, PA). Images were saved as TIFF files, and tube formation analysed using AngioSys 1.0 (TCS Cell Works, UK). Image threshold was adjusted based on the intensity values of the monochrome image and each image then skeletonized to reduce to one pixel wide. […] The total length of lines was quantified in pixels (then converted to micrometers) and total number of branch points was recorded.
(§3) GCH1-specific, ON-TARGETplus SMARTpool siRNA was purchased from Dharmacon Thermo Scientific. […] The cells were cultured for 72 h, and gene silencing was detected by analysis of GTPCH protein expression by Western blotting using GTPCH-specific antibodies (a gift from S.Gross, Cornell University New York), in cells using standard protocols.

[6] = test system: sEND.1 mouse endothelial cell line; assay: Matrigel endothelial tube formation, sEND.1 cells with Gch1 siRNA; assay type: cell-based; conditions: sEND.1 treated with specific Gch1 siRNA; sepiapterin 1 μM
Protocol: as §2, §3

HUVECs [7] = assay: Matrigel endothelial tube formation, HUVECs from NT and PE pregnancies; assay type: cell-based, human; conditions: sepiapterin 1 μM
Excerpt: Umbilical cords were collected at birth and human umbilical vein endothelial cells (HUVECs) were isolated and stored in liquid nitrogen according to standard operating procedures within a research tissue bank (Oxford Cardiovascular Tissue Bioresource; ethical approval 09/H0606/68, 07/H0606/148 and 11/SC/0230). For the purpose of the current study, HUVECs were identified from normotensive pregnancies and pregnancies complicated by preeclampsia, matched for maternal age and gestation. HUVECs and human uterine microvascular endothelial cells (HutMECs; Cat C-12295, Promocell) were cultured in EBM2 (endothelial basal medium) with bullet kit as recommended (Cat CC-3162, Lonza). All cell cultures were maintained in humidified 5% CO2 at 37° C. […]
To assess tube formation ability of endothelial cells, a 96-well plate was evenly coated with 50 μl of growth factor-reduced Matrigel (BD Biosciences, UK). […] Images were saved as TIFF files, and tube formation analysed using AngioSys 1.0 (TCS Cell Works, UK). […] The total length of lines was quantified in pixels (then converted to micrometers) and total number of branch points was recorded.

[8] = target: T2, endothelial nitric oxide synthase (eNOS) (Homo sapiens, UniProt P29474); assay: NO synthesis by eNOS (14C arginine to citrulline conversion) in HUVECs; assay type: cell-based; conditions: HUVECs from NT and PE pregnancies; sepiapterin 1 μM
T2 construct: endogenous in cells; host or cells: primary HUVECs (passages 1-3) from normotensive and pre-eclamptic pregnancies
Excerpt: Umbilical cords were collected at birth and human umbilical vein endothelial cells (HUVECs) were isolated and stored in liquid nitrogen according to standard operating procedures within a research tissue bank (Oxford Cardiovascular Tissue Bioresource; ethical approval 09/H0606/68, 07/H0606/148 and 11/SC/0230). For the purpose of the current study, HUVECs were identified from normotensive pregnancies and pregnancies complicated by preeclampsia, matched for maternal age and gestation. […] All cell cultures were maintained in humidified 5% CO2 at 37° C.
NO synthesis by eNOS was assessed by conversion of ^14C L-arginine to citrulline, in the presence and absence of N-monomethyl-L-arginine (1 mM, Sigma), as described previously^9. Briefly, HUVES were incubated for 4 hours at 37° C. in 200 μl Krebs-HEPES buffer containing ^14C L-arginine (2 μl of 50 μCi/mL). Samples were run on a SCX 300 cation exchange HPLC column (Sigma) with online scintillation detection. Background signals were corrected from samples with ^14C L-arginine alone without cells.

SMILES: CN1c2c(nc(N)[nH]c2=O)NC[C@@H]1CNc1ccc(C(=O)N[C@@H](CCC(=O)O)C(=O)O)cc1 [5-MTHF, 5-methyltetrahydrofolate]
- time from initiation of treatment to reduction in blood pressure (Gch1^fl/flTie2cre mice): ≤ 2 days
- systemic oxidation of BH4 to BH2 [1]: prevented

SMILES: CN1c2c([nH]c(N)nc2=O)NC[C@@H]1CNc1ccc(C(=O)N[C@@H](CCC(=O)O)C(=O)O)cc1 [Arcofolin]
- BH4 levels (HUVECs [2]; HUVECs from pregnancies with high blood pressure, 5MTHF 10 μm, 16 h at 37° C. (FIG. 36)): increases

SMILES: C[C@H](O)[C@H](O)[C@H]1CNc2nc(N)[nH]c(=O)c2N1 [BH4, tetrahydrobiopterin]
- systemic oxidation of BH4 to BH2 [1]: rapidly oxidised
- BH4/BH2+B (total biopterins) ratio ([1]; pregnant mice, E18.5, oral BH4 200 mg/kg/day): reduction
- plasma BH4 levels ([1]; pregnant mice, E18.5, oral in chow from 3 days before timed matings, BH4 200 mg/kg/day, 5-MTHF 15 mg/kg/day): increased

SMILES: COC(=O)[C@@H](N)CCCNC(=N)N[N+](=O)[O-] [L-NAME]
- activity of endothelial nitric oxide synthase (L-arginine to L-citrulline conversion) [3]: inhibited
- ACh vasorelaxations in the presence of L-NAME (uterine arteries; Gch1^fl/flTie2cre uterine arteries, L-NAME 100 μM): did not significantly inhibit
- vasoconstriction response to U46619 in the presence of L-NAME (uterine arteries; uterine arteries of pregnant Gch1^fl/flTie2cre mice, L-NAME 100 μM): unchanged
- vasoconstriction response to U46619 in the presence of L-NAME (uterine arteries; uterine arteries of pregnant wild-type mice, L-NAME 100 μM): increased

SMILES: Nc1nc2ncc(CNc3ccc(C(=O)N[C@@H](CCC(=O)O)C(=O)O)cc3)nc2c(=O)[nH]1 [folic acid]
- generation of reactive oxygen species (ROS) (sEnd.1 cells): increased
- clinical benefit in pre-eclampsia (women with pre-eclampsia): no benefit
- BH4 levels ([4]; sEnd.1 cells, folic acid 10 μm, 16 h at 37° C., with or without MTX 1 μm (FIG. 28)): no effect

SMILES: COc1ccc2c(c1)c(CC(=O)O)c(C)n2C(=O)c1ccc(Cl)cc1 [indomethacin]
- endothelium-dependent vasodilation to ACh in the presence of inhibitors (uterine arteries; uterine arteries, pregnant or non-pregnant wild-type and Gch1^fl/flTie2cre mice, indomethacin 10 μM, apamin 50 nM, charybdotoxin 100 nM): minimal effect

SMILES: C[C@H](O)[C@H](O)[C@H]1CNc2nc(N)[nH]c(=O)c2N1 [sapropterin dihydrochloride]
- clinical benefit in PKU (people with PKU): little or no benefit

SMILES: C[C@H](O)C(=O)C1=Nc2c(nc(N)[nH]c2=O)NC1 [sepiapterin]
- endothelial cell growth and tubule formation [5]: rescued
- endothelial cell growth and tubule formation [6]: fully restored; also recorded: rescued
- BH4 levels ([4]; sEND.1 treated with specific Gch1 siRNA, sepiapterin 1 μM): increased
- BH4 levels (HUVECs [2]; HUVECs from hypertensive/pre-eclamptic pregnancies, sepiapterin 1 μM): normalized
- endothelial cell growth and tubule formation (HUVECs [7]): restored; also recorded: rescued
- eNOS activity [8]: normalized; also recorded: significantly increased
